From patent publication US10112940B2, “Histone demethylase inhibitors” (Celgene Quanticel Research, Inc., priority 2014, dated 2018)
Read-outs that look alike come from different tables or passages of the source.

Key:
JMJD2C = JMJD2C (Homo sapiens (Human), UniProt Q9H3R0); assay: JMJD2C in vitro enzyme inhibition assay (TR-FRET); type: biochemical; conditions: 0.3 nM JMJD2C, 300 nM H3K9me3-biotin peptide, 2 μM alpha-ketoglutaric acid, 30 minutes
Method in brief: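 Baculovirus-expressed JMJD2C (aa 2-372), 0.3 nM, with 300 nM biotin-H3K9me3 peptide and 2 μM alpha-ketoglutarate in HEPES pH 7.3 with ascorbate and Fe(II), 30 min at room temperature, 11-point inhibitor series. H3K9me2 product detected by TR-FRET (Eu-antibody/streptavidin-APC, 665/615 ratio); IC50 fitted.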

[1] = test system: KYSE-150 esophageal carcinoma cell line; assay: In vitro cell-based assay: BrdU incorporation cell proliferation ELISA; set-up: species or system human; conditions: KYSE-150 cells, 168 hours compound incubation, read-out: Cellular IC50
Method in brief: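 KYSE-150 cells (SMAD4 mut, TP53 mut) seeded at 2,000 cells/well, treated next day with 11-point dilutions (100 μM to 2 nM final) for 168 h. Proliferation read by 2 h BrdU labelling and colorimetric anti-BrdU ELISA at 450 nm; IC50 from curve fit.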

Chain of JMJD2C (Q9H3R0 2-372): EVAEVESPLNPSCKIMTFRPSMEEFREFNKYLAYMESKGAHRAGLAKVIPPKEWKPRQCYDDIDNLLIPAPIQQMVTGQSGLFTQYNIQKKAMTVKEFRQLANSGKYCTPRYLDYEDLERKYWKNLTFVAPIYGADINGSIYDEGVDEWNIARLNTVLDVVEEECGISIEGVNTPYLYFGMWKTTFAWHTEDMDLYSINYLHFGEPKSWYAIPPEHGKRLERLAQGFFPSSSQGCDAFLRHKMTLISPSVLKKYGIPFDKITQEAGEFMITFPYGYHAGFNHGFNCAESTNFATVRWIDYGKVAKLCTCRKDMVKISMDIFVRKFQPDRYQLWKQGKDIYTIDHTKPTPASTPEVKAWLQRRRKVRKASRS

Compound	IC50 (JMJD2C) [µM]	IC50 ([1]; Homo sapiens) [µM]	IC50 [1] [µM]
CN1CCCN(c2cccc(N(C)c3ccc(Oc4nc(O)c5ccncc5n4)cc3)c2)CC1 [Example 88, 2-[4-[N-methyl-3-(4-methyl-1,4-diazepan-1-yl)anilino]phenoxy]pyrido[3,4-d]pyrimidin-4-ol]	≤ 0.1	> 10	
CN1CCC(N(C)c2cccc(N(C)c3ccc(Oc4nc(O)c5ccncc5n4)cc3)c2)CC1 [Example 89, 2-[4-[N-methyl-3-[methyl-(1-methylpiperidin-4-yl)amino]anilino]phenoxy]pyrido[3,4-d]pyrimidin-4-ol]	≤ 0.1	1 to 10	
Cc1cc(N2CCN(C)CC2)cc(N(C)c2ccc(Oc3nc(O)c4ccncc4n3)cc2)c1 [Example 90, 2-[4-[N,3-dimethyl-5-(4-methylpiperazin-1-yl)anilino]phenoxy]pyrido[3,4-d]pyrimidin-4-ol]	≤ 0.1	> 10	
Oc1nc(Oc2ccc3c(ccn3C3CCOCC3)c2)nc2cnccc12 [Example 91, 2-[1-(oxan-4-yl)indol-5-yl]oxypyrido[3,4-d]pyrimidin-4-ol]	0.1 to 1	> 10	
CN(c1ccc(Oc2nc(O)c3ccncc3n2)cc1)c1ccc(C(C)(C)C)cc1 [Example 92, 2-[4-(4-tert-butyl-N-methylanilino)phenoxy]pyrido[3,4-d]pyrimidin-4-ol]	0.1 to 1	≤ 0.1	
CN(c1ccc(Cl)cc1)c1ccc(Oc2nc(O)c3ccncc3n2)cc1 [Example 94, 2-[4-(4-chloro-N-methylanilino)phenoxy]pyrido[3,4-d]pyrimidin-4-ol]	0.1 to 1	0.1 to 1	
CN(c1ccc(Oc2nc(O)c3ccncc3n2)cc1)c1cccc(Cl)c1 [Example 95, 2-[4-(3-chloro-N-methylanilino)phenoxy]pyrido[3,4-d]pyrimidin-4-ol]	1 to 10	1 to 10	
CN(c1ccc(Oc2nc(O)c3ccncc3n2)cc1)c1ccccc1F [Example 96]	0.1 to 1		1 to 10
CCc1ccc(N(C)c2ccc(Oc3nc(O)c4ccncc4n3)cc2)nc1 [Example 97, 2-[4-[(5-ethylpyridin-2-yl)-methylamino]phenoxy]pyrido[3,4-d]pyrimidin-4-ol]	0.1 to 1	0.1 to 1	
CN(c1ccc(Oc2nc(O)c3ccncc3n2)cc1)c1ccc(C2=CCOCC2)cc1 [Example 98, 2-[4-[4-(3,6-dihydro-2H-pyran-4-yl)-N-methylanilino]phenoxy]pyrido[3,4-d]pyrimidin-4-ol]	1 to 10	> 10	
CN(c1ccc(Oc2nc(O)c3ccncc3n2)cc1)c1ccc(C2CCOCC2)cc1 [Example 99, 2-[4-[N-methyl-4-(oxan-4-yl)anilino]phenoxy]pyrido[3,4-d]pyrimidin-4-ol]	0.1 to 1	≤ 0.1	
COCCNCC(C)c1ccc(N(C)c2ccc(Oc3nc(O)c4ccncc4n3)cc2)cc1 (centres unmarked) [Example 100, 2-[4-[4-[1-(2-methoxyethylamino)propan-2-yl]-N-methylanilino]phenoxy]pyrido[3,4-d]pyrimidin-4-ol]	≤ 0.1	> 10	
CN(c1ccc(OCC2CC2)cc1)c1ccc(Oc2nc(O)c3ccncc3n2)cc1 [Example 101, 2-[4-[4-(cyclopropylmethoxy)-N-methylanilino]phenoxy]pyrido[3,4-d]pyrimidin-4-ol]	1 to 10	0.1 to 1	
COCCN(c1ccc(Oc2nc(O)c3ccncc3n2)cc1)c1ccc(C(C)C)cc1 [Example 102, 2-[4-[N-(2-methoxyethyl)-4-propan-2-ylanilino]phenoxy]pyrido[3,4-d]pyrimidin-4-ol]	0.1 to 1	0.1 to 1	
Oc1nc(Oc2ccc3c(ccn3-c3ccccc3)c2)nc2cnccc12 [Example 103, 2-(1-phenylindol-5-yl)oxypyrido[3,4-d]pyrimidin-4-ol]	1 to 10	> 10	
Oc1nc(Oc2ccc3c(ccn3C3CCNCC3)c2)nc2cnccc12 [Example 104, 2-(1-piperidin-4-ylindol-5-yl)oxypyrido[3,4-d]pyrimidin-4-ol]	≤ 0.1	> 10	
Cc1ccc(N(C)c2ccc(Oc3nc(O)c4ccncc4n3)cc2)cc1N1CCN(C)CC1 [Example 105, 2-[4-[N,4-dimethyl-3-(4-methylpiperazin-1-yl)anilino]phenoxy]pyrido[3,4-d]pyrimidin-4-ol]	≤ 0.1	1 to 10	
CN(c1ccc(CC(F)(F)F)cc1)c1ccc(Oc2nc(O)c3ccncc3n2)cc1 [Example 106, 2-[4-[N-methyl-4-(2,2,2-trifluoroethyl)anilino]phenoxy]pyrido[3,4-d]pyrimidin-4-ol]	1 to 10	≤ 0.1	
CN(c1ccc(Oc2nc(O)c3ccncc3n2)cc1)c1ccc(C2(C(F)(F)F)CC2)cc1 [Example 107, 2-[4-[N-methyl-4-[1-(trifluoromethyl)cyclopropyl]anilino]phenoxy]pyrido[3,4-d]pyrimidin-4-ol]	1 to 10	≤ 0.1	
CC(c1ccc(N(C)c2ccc(Oc3nc(O)c4ccncc4n3)cc2)cc1)C(F)(F)F (centres unmarked) [Example 108, 2-[4-[N-methyl-4-(1,1,1-trifluoropropan-2-yl)anilino]phenoxy]pyrido[3,4-d]pyrimidin-4-ol]	0.1 to 1	≤ 0.1	
CC(C)c1ccc(N(C)c2ccc(Oc3nc(O)c4ccncc4n3)cc2)cn1 [Example 109, 2-[4-[methyl-(6-propan-2-ylpyridin-3-yl)amino]phenoxy]pyrido[3,4-d]pyrimidin-4-ol]	0.1 to 1	1 to 10	
CN(c1ccc(Oc2nc(O)c3ccncc3n2)cc1)c1ccc(OC(F)(F)F)cc1 [Example 110, 2-[4-[N-methyl-4-(trifluoromethoxy)anilino]phenoxy]pyrido[3,4-d]pyrimidin-4-ol]	1 to 10	0.1 to 1	
CC(C)Oc1ccc(N(C)c2ccc(Oc3nc(O)c4ccncc4n3)cc2)cc1 [Example 111, 2-[4-(N-methyl-4-propan-2-yloxyanilino)phenoxy]pyrido[3,4-d]pyrimidin-4-ol]	0.1 to 1	0.1 to 1	
CC(CCN(C)C)c1ccc(N(C)c2ccc(Oc3nc(O)c4ccncc4n3)cc2)cc1 (centres unmarked) [Example 115, 2-(4-{[4-(3-dimethylamino-1-methyl-propyl)-phenyl]-methyl-amino}-phenoxy)-pyrido[3,4-d]pyrimidin-4-ol]	≤ 0.1	> 10	
CCN(c1ccc(Oc2nc(O)c3ccncc3n2)cc1)c1ccc(C(C)C)cc1 [Example 117, 2-(4-(ethyl(4-isopropylphenyl)amino)phenoxy)pyrido[3,4-d]pyrimidin-4-ol]	1 to 10	≤ 0.1	
